Reference: PubChem BioAssay AID2060619 (Molecular Pharmacology Branch, DTP, NCI, 2025)
Values joined by “and” are separate entries in the source; they are usually repeats but may differ in a detail not shown here. Equal entries are not always repeated.

Test system: 323965-272-R-J2-PDC complex spheroid viability
Assay: Anticancer human tumor 323965-272-R-J2-PDC patient-derived pancreatic carcinoma cell line growth inhibition [CLK]
Conditions: for viability, T/C: stronger effect = lower value; active means viability on the fitted dose curve at most 10% of control; inactive means the rest
Outline: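 Multi-cell-type spheroids combined patient-derived tumor cells with HUVEC endothelial cells and human mesenchymal stem cells. Paired agents were dosed in half-log steps down from about clinical Cmax, or from 10 microM where Cmax was unknown.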

[1] = curve of first compound, second compound 0.0316 µM
[2] = curve of first compound, second compound 0.1 µM
[3] = curve of first compound, second compound 0.316 µM
[4] = curve of first compound, second compound 1 µM
[5] = curve of first compound, second compound 3.16 µM
[6] = curve of first compound, second compound 10 µM
[7] = second compound 0.0316 µM, first compound 0.0316 µM
[8] = second compound 0.0316 µM, first compound 0.1 µM
[9] = second compound 0.0316 µM, first compound 0.316 µM
[10] = second compound 0.0316 µM, first compound 1 µM
[11] = second compound 0.0316 µM, first compound 3.16 µM
[12] = second compound 0.0316 µM, first compound 10 µM
[13] = second compound 0.1 µM, first compound 0.0316 µM
[14] = second compound 0.1 µM, first compound 0.1 µM
[15] = second compound 0.1 µM, first compound 0.316 µM
[16] = second compound 0.1 µM, first compound 1 µM
[17] = second compound 0.1 µM, first compound 3.16 µM
[18] = second compound 0.1 µM, first compound 10 µM
[19] = second compound 0.316 µM, first compound 0.0316 µM
[20] = second compound 0.316 µM, first compound 0.1 µM
[21] = second compound 0.316 µM, first compound 0.316 µM
[22] = second compound 0.316 µM, first compound 1 µM
[23] = second compound 0.316 µM, first compound 3.16 µM
[24] = second compound 0.316 µM, first compound 10 µM
[25] = second compound 1 µM, first compound 0.0316 µM
[26] = second compound 1 µM, first compound 0.1 µM
[27] = second compound 1 µM, first compound 0.316 µM
[28] = second compound 1 µM, first compound 1 µM
[29] = second compound 1 µM, first compound 3.16 µM
[30] = second compound 1 µM, first compound 10 µM
[31] = second compound 3.16 µM, first compound 0.0316 µM
[32] = second compound 3.16 µM, first compound 0.1 µM
[33] = second compound 3.16 µM, first compound 0.316 µM
[34] = second compound 3.16 µM, first compound 1 µM
[35] = second compound 3.16 µM, first compound 3.16 µM
[36] = second compound 3.16 µM, first compound 10 µM
[37] = second compound 10 µM, first compound 0.0316 µM
[38] = second compound 10 µM, first compound 0.1 µM
[39] = second compound 10 µM, first compound 0.316 µM
[40] = second compound 10 µM, first compound 1 µM
[41] = second compound 10 µM, first compound 3.16 µM
[42] = second compound 10 µM, first compound 10 µM
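Further: spheroids exposed to agents for seven days before readout.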
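Wherever viability, T/C is given: percent of DMSO vehicle control wells so 100% = untreated growth.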

CC(Nc1ccc2c(c1)OCCn1cc(N3C(=O)OCC3C(F)F)nc1-2)C(N)=O (stereo not given) + CN1CCN(c2cc(C(=O)Nc3cc4cc(-c5cnn(C)c5)ccc4cn3)ccn2)CC1
327 nM: IC50 [2]
7280 nM: IC50 [1]
< 31.6 nM: IC50 [3] | IC50 [4] | IC50 [5] | IC50 [6]
inactive: viability, T/C [7] 91.5% | viability, T/C [8] 78.7% | viability, T/C [9] 79% | viability, T/C [10] 65.6% | viability, T/C [11] 55.3% | viability, T/C [12] 48% | viability, T/C [13] 67.6% | viability, T/C [14] 58.3% | viability, T/C [15] 50% | viability, T/C [16] 45.1% | viability, T/C [17] 37.5% | viability, T/C [18] 36.7% | viability, T/C [19] 27.5% | viability, T/C [20] 23.4% | viability, T/C [21] 18% | viability, T/C [22] 19.1% | viability, T/C [23] 19.2% | viability, T/C [24] 14.3%
active: viability, T/C [25] 3.27% | viability, T/C [26] 4.12% | viability, T/C [27] 3.78% | viability, T/C [28] 2.98% | viability, T/C [29] 2.66% | viability, T/C [30] 2.88% | viability, T/C [31] 3.35% | viability, T/C [32] 3.08% | viability, T/C [33] 2.69% | viability, T/C [34] 2.63% | viability, T/C [35] 2.26% | viability, T/C [36] 2.14% | viability, T/C [37] 2.98% | viability, T/C [38] 3.37% | viability, T/C [39] 3.23% | viability, T/C [40] 2.97% | viability, T/C [41] 3.87% | viability, T/C [42] 2.96%

O=C(c1cc(Cc2n[nH]c(=O)c3ccccc23)ccc1F)N1CCN(C(=O)C2CC2)CC1
> 10000 nM: IC50 (curve of compound)
inactive: viability, T/C (compound 0.0316 µM) 105% and 107% | viability, T/C (compound 0.1 µM) 103% and 102% | viability, T/C (compound 0.316 µM) 100% and 98.1% | viability, T/C (compound 1 µM) 103% and 90.2% | viability, T/C (compound 3.16 µM) 108% and 107% | viability, T/C (compound 10 µM) 84.3% and 81.5%

O=c1[nH]cc(F)c(=O)[nH]1 + CNC(=O)c1ccc(Nc2nc(OC3CCCC3)c3c(-c4ccc5nc(C)oc5c4)c[nH]c3n2)c(OC)c1
< 31.6 nM: IC50 [4] | IC50 [5] | IC50 [6]
> 10000 nM: IC50 [1] | IC50 [2]
inactive: viability, T/C [7] 84.2% | viability, T/C [8] 91.9% | viability, T/C [9] 110% | viability, T/C [10] 91.4% | viability, T/C [11] 73.8% | viability, T/C [12] 55.4% | viability, T/C [13] 85.1% | viability, T/C [14] 80.5% | viability, T/C [15] 72.4% | viability, T/C [16] 65.6% | viability, T/C [17] 57.3% | viability, T/C [18] 53.1% | viability, T/C [19] 59.2% | viability, T/C [20] 59.9% | viability, T/C [21] 57.8% | viability, T/C [22] 48.3% | viability, T/C [23] 50.6% | viability, T/C [24] 41.6% | viability, T/C [25] 43.9% | viability, T/C [26] 41.1% | viability, T/C [27] 48.1% | viability, T/C [28] 38.2% | viability, T/C [29] 34.7% | viability, T/C [30] 29.3% | viability, T/C [31] 40.6% | viability, T/C [32] 36.8% | viability, T/C [33] 37.4% | viability, T/C [34] 36.9% | viability, T/C [35] 29.5% | viability, T/C [36] 27.2% | viability, T/C [37] 37.8% | viability, T/C [38] 42.7% | viability, T/C [39] 38.9% | viability, T/C [40] 37.6% | viability, T/C [41] 31.4% | viability, T/C [42] 31.3%
1900 nM: IC50 [3]

CC1(C)CCC(CN2CCN(c3ccc(C(=O)NS(=O)(=O)c4ccc(NCC5CCOCC5)c([N+](=O)[O-])c4)c(Oc4cnc5[nH]ccc5c4)c3)CC2)=C(c2ccc(Cl)cc2)C1
5610 nM and 5540 nM: IC50 (curve of compound)
inactive: viability, T/C (compound 0.0316 µM) 97.7% and 104% | viability, T/C (compound 0.1 µM) 103% and 96.6% | viability, T/C (compound 0.316 µM) 103% and 100% | viability, T/C (compound 1 µM) 95.6% and 102% | viability, T/C (compound 3.16 µM) 93.1% and 89.5%
active: viability, T/C (compound 10 µM) 6.41% and 8.48%

COc1cccc2c1C(=O)c1c(O)c3c(c(O)c1C2=O)CC(O)(C(=O)CO)CC3OC1CC(N)C(O)C(C)O1 (stereo not given)
240 nM and 97.6 nM: IC50 (curve of compound)
active: viability, T/C (compound 10 µM) 2.57% and 0.82%
inactive: viability, T/C (compound 0.0316 µM) 87.4% and 66.2% | viability, T/C (compound 0.1 µM) 40.6% and 41.4% | viability, T/C (compound 0.316 µM) 38.4% and 37% | viability, T/C (compound 1 µM) 44.7% and 30.5% | viability, T/C (compound 3.16 µM) 30.1% and 21.3%
